The text below walks through data of patent US11629155B2, “Small molecule antagonist compound TAC5 series having toll-like receptor 3/7/8/9 inhibitory function” (AJOU UNIVERSITY INDUSTRY-ACADEMIC COOPERATION FOUNDATION, priority 2018, dated 2023).

In one test the target is T1, TLR1/2 (Homo sapiens, UniProt O60603+Q15399).
T1 construct: endogenous in cells; host or cells: THP1-derived macrophages (PMA-differentiated)
The experiment in a line: Pam3CSK4-induced TNF-α secretion (ELISA) in THP1-derived macrophages. In kind it is cell-based. Particulars: 1 to 50 μM, FIG. 4D.

The target of another test is T2, TLR8 (Homo sapiens, UniProt Q9NR97).
T2 construct: endogenous in cells; host or cells: THP1-derived macrophages (PMA-differentiated)
T2 sequence (Q9NR97 27-1041): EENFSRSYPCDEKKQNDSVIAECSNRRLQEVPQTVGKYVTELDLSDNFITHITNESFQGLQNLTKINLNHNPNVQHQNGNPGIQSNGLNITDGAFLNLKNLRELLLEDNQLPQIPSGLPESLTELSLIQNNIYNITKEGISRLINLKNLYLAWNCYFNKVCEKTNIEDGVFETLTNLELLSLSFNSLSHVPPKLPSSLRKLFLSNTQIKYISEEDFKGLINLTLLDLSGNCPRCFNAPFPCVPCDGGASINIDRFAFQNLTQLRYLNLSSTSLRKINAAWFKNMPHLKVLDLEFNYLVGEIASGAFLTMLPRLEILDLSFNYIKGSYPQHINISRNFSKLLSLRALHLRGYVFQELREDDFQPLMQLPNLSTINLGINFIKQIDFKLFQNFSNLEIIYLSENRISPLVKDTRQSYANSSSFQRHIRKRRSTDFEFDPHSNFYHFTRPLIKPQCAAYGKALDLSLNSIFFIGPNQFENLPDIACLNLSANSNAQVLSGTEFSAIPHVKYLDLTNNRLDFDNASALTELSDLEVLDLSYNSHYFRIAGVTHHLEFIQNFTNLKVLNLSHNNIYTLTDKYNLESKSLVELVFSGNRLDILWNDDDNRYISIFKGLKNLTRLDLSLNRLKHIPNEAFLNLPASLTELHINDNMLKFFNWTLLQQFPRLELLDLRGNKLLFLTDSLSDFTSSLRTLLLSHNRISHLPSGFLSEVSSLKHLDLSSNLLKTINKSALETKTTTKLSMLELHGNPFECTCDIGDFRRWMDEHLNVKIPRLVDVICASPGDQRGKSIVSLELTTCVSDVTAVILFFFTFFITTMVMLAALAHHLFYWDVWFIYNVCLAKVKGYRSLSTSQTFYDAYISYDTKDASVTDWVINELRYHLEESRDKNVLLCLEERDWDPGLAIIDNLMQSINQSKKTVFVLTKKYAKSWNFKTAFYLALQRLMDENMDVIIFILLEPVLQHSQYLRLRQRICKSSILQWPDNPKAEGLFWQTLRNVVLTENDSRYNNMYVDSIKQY
The experiment in a line: TL8, R848 or CL075-induced TNF-α or IL-6 secretion in THP1-derived macrophages. It counts as cell-based. As to conditions: TL8, R848 or CL075, dose-dependent manner, FIGS. 4E-4G.

For another test, the target named is T3, TLR3 (Homo sapiens, UniProt O15455).
T3 construct: endogenous in cells; host or cells: THP1-derived macrophages (PMA-differentiated)
T3 sequence (O15455 24-904): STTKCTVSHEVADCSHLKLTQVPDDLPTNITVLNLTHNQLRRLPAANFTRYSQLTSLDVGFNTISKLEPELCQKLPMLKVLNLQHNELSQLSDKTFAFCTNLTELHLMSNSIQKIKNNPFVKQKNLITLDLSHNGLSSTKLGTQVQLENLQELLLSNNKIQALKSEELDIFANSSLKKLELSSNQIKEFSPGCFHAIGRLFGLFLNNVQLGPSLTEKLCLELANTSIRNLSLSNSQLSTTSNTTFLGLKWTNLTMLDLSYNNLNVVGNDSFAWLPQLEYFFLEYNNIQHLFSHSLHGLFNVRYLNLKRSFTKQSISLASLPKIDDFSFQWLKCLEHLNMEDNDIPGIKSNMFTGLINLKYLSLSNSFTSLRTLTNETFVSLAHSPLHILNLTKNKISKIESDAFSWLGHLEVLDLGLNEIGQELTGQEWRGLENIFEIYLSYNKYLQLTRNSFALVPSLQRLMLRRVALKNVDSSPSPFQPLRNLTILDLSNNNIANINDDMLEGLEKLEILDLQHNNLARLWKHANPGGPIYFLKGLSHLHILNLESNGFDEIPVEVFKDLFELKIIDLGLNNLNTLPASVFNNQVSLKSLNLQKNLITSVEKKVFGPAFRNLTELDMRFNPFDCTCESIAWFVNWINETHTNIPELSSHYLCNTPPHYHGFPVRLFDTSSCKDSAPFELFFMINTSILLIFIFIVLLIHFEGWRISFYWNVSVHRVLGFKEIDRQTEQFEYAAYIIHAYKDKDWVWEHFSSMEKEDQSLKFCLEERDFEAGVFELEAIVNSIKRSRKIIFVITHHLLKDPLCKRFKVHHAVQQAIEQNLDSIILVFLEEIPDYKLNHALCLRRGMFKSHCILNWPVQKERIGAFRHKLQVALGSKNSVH
The experiment in a line: poly(I:C)-induced TNF-α or IL-6 secretion in THP1-derived macrophages. It counts as cell-based. Particulars: dose-dependent manner, FIGS. 4E-4G.

Test [1] concerns C57BL/6 mice, IMQ-induced psoriasis. The experiment in a line: IMQ-induced psoriasis mouse model. It counts as in vivo. How it is done:
The therapeutic efficacy of TAC5-a was evaluated in a psoriasis mouse model and a SLE mouse model. Psoriasis was induced in 6-7 week old C57BL/6 mice by topically applying 42 mg of IMQ cream (5%) to the shaved back skin of the mice for 6 consecutive days (FIG. 5A). TAC5-a was injected daily at doses of 50, 100 and 200 nmol/g and the effect thereof on severity was analyzed.
Histological analysis and immunochemical staining were performed on skin samples of mouse dorsal lesions. The sample was fixed with 4% paraformaldehyde solution, then embedded in paraffin and cut to 7 μm on a glass slide. The sections were stained with hematoxylin and eosin (H&E) and the thickness of the dermis and epidermis were measured. The thickness of skin was measured with a Leica DMi8 fluorescence microscope using a Leica LAS X Hardware Configurator (Leica Microsystems GmbH, Wetzlar, Germany). IMQ-mediated skin inflammation was evaluated by immunohistochemistry (IHC) using a primary antibody that recognizes CD68 (ab31630, 1:200 dilution) as a macrophage marker. […] The skin was stained with hematoxylin and eosin (H&E) in order to evaluate the thickness of the epidermis (yellow arrow) and dermis (green arrow) in IMQ-induced psoriasis mice and thereby to observe the histopathological changes of skin lesions in each group (FIG. 5G) Immunohistochemical analysis of skin lesions in each group was performed using a primary antibody that recognizes CD68.

T1 sequence (Q15399 25-786): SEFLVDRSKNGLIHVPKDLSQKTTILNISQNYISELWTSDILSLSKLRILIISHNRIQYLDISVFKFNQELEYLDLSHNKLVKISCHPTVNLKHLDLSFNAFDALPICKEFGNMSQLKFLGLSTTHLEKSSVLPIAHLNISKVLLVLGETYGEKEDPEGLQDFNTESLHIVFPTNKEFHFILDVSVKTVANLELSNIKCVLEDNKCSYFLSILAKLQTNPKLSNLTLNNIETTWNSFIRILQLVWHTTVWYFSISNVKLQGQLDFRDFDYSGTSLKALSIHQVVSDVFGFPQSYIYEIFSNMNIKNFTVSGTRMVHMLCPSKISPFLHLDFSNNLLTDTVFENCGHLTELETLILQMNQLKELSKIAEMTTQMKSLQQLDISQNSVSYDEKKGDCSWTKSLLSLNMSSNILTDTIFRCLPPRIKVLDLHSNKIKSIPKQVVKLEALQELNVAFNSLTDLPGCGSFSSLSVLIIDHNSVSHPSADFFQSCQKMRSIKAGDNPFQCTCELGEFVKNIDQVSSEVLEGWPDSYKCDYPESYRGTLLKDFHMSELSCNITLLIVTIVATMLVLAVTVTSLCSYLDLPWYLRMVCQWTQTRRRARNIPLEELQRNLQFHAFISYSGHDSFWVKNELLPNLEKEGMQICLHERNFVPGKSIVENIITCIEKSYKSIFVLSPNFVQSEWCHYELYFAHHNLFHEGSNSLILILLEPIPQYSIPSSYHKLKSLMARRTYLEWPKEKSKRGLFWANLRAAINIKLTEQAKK
T1 sequence (O60603 21-784): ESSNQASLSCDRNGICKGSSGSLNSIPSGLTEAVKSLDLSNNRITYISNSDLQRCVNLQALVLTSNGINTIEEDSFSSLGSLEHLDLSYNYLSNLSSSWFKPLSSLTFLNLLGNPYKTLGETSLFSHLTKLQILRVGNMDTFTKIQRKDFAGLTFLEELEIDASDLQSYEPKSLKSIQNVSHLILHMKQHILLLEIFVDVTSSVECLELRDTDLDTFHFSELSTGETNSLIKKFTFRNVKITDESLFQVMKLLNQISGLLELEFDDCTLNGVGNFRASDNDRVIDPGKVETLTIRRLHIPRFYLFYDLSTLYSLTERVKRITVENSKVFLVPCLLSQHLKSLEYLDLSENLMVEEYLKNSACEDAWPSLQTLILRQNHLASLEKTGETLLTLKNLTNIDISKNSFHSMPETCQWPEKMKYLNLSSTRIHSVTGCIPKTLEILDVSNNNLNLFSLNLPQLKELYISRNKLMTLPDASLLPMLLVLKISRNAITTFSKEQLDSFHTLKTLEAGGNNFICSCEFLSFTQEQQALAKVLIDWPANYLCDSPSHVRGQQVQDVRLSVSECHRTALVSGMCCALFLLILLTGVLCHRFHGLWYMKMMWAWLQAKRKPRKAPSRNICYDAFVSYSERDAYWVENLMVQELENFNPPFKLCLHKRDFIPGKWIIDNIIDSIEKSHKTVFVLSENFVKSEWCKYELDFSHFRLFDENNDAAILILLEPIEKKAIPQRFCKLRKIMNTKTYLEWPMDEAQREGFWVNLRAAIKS

Turning to `Nc1cccc(COc2cccnc2N)c1` [TAC5-a, 3-((3-aminobenzyl)oxy)pyridin-2-amine], the “TLR1/2 (Pam3CSK4)-mediated TNF-α secretion” value at TLR1/2 is reported as “did not block”. Besides, the “TLR8-mediated TNF-α or IL-6 secretion” value at TLR8 is “significantly inhibited”. The “TLR3-mediated TNF-α or IL-6 secretion” value at TLR3 is reported as “significantly inhibited”. The “effect on back skin inflammation compared with methotrexate (MTX)” value in test [1] (FIG. 5B) is reported as “relatively weaker”. Besides, in test [1] (FIG. 5D), the spleen hypertrophy entry was “adequately prevented”. Also, the “thickness of the epidermis and the dermis (H&E)” value in test [1] (FIG. 5F) is given as “therapeutic effects similar to those of the treatment group were observed”. The “expression of CD68 in skin lesions (immunohistochemistry)” value in test [1] (FIG. 5H) is “effectively reduced”. Also, the “PASI score (psoriasis area and severity index)” value in test [1] (fourth day of treatment, decreased from 8.0 or higher, FIG. 5C) is given as “less than 4.0”. For the same compound, the “degree of inflammation in the back skin” value in test [1] (injected daily at 50, 100 and 200 nmol/g, FIG. 5B) is listed as “reversal of the degree of inflammation was evident”.
